We go through 20 compounds from US7208526B2, “Styrylsulfonamides” (Hoffmann-La Roche Inc., priority 2005, dated 2007).

pIC50: −log10 of the molar value. Where a name gives a salt, the structure may show the parent alone.

The assay relates to HCT 116 cells (human colon carcinoma, ATCC-No. CCl-247). Nature of the assay: Viability assay in HCT 116 cells (CellTiter-Glo Luminescent Cell Viability Assay). In kind it is cell-based. Conditions: 10 concentrations 30 μM to 0.0015 μM, incubation 120 h (5 days), luminescence (ATP), triplicate. The text has this:
Viability Assay in HCT 116 Cells
This assay is a homogeneous method of determining the number of viable cells in culture based on quantitation of the ATP present, an indicator of metabolically active cells. The assay is designed for use with multiwell formats, making it ideal for automated high-throughput screening (HTS), cell proliferation and cytotoxicity assays. The homogeneous assay procedure involves adding a single reagent (containing luciferase, luciferan substrate, and buffer) directly to cells cultured in serum-supplemented medium. Cell washing, removal of medium and multiple pipetting steps are not required. The system detects as few as 15 cells/well in a 384-well format in 10 minutes after adding reagent and mixing.
The homogeneous “add-mix-measure” format results in cell lysis and generation of a luminescent signal proportional to the amount of ATP present. The amount of ATP is directly proportional to the number of cells present in culture. The above-referenced assay generates a “glow-type” luminescent signal, produced by the luciferase reaction, which has a half-life generally greater than five hours, depending on cell type and medium used. The extended half-life eliminates the need to use reagent injectors and provides flexibility for continuous or batch mode processing of multiple plates. The unique homogeneous format avoids errors that may be introduced by other ATP measurement methods that require multiple steps.
For the assay the cells were seeded in 384 well plates, 1000 cells per well, in the same medium. […] After 5 days the viability assay was done according to the instructions of the manufacturer. In brief: the cell-plate was equilibrated to room temperature for approximately 30 minutes and then reagent (containing luciferase, luciferan substrate, and buffer) was added. The contents were carefully mixed for 15 minutes to induce cell lysis. After 45 minutes the luminescent signal was measured in Victor 2, (scanning multiwell spectrophotometer, Wallac).
In order to achieve a final concentration of 30 μM as highest concentration […] of 10 mM compound stock solution were added directly to 163 μl media. Then step e) of the dilution procedure described below, was followed.
Analysis: • Add 30 μl of reagent containing luciferase, luciferan substrate, and buffer per well, • shake 15 minutes at room temperature • incubate further 45 minutes at room temperature without shaking
Measurement: • Victor 2 scanning multiwell spectrophotometer (Wallac), Luminescence mode (0.5 sec/read, 477 nm) • Determine IC50 using a non-linear curve fit (XLfit® software [ID Business Solution Ltd., Guilford, Surrey, UK])

Regarding `COc1cccc(/C=C/S(=O)(=O)NC(=O)c2ccc(F)cc2Br)c1` [Example 4-18, (E)-2-(3-Methoxy-phenyl)-ethenesulfonic acid 2-bromo-4-fluoro-benzoylamide; sodium salt], the pIC50 was 4.82 to 6.30.

Compound `O=C(NS(=O)(=O)/C=C/c1ccccc1Cl)c1ccc(F)cc1Br` [Example 4-21, (E)-2-(2-Chlorophenyl)-ethenesulfonic acid 2-bromo-4-fluoro-benzoylamide; sodium salt] had a pIC50 of 4.82 to 6.30.

For `O=C(NS(=O)(=O)/C=C/c1ccc(OC(F)(F)F)cc1)c1ccc(F)cc1Br` [Example 4-22, (E)-2-(4-Trifluoromethoxyphenyl)-ethenesulfonic acid 2-bromo-4-fluoro-benzoylamide; sodium salt], the pIC50 was 4.82 to 6.30.

Regarding `COc1cccc(/C=C/S(=O)(=O)NC(=O)c2ccc(Br)cc2Cl)c1` [Example 4-25, (E)-2-(3-Methoxy-phenyl)-ethenesulfonic acid 4-bromo-2-chloro-benzoylamide; sodium salt], the pIC50 is 4.82 to 6.30.

As to `O=C(NS(=O)(=O)/C=C/c1ccccc1Cl)c1ccc(Br)cc1Cl` [Example 4-28, (E)-2-(2-Chloro-phenyl)-ethenesulfonic acid 4-bromo-2-chloro-benzoylamide; sodium salt], the pIC50 is 4.82 to 6.30.

In the case of `COc1ccccc1/C=C/S(=O)(=O)NC(=O)c1ccc(C)cc1C` [Example 4-31, (E)-2-(2-Methoxy-phenyl)-ethenesulfonic acid 2,4-dimethyl-benzoylamide; sodium salt], the pIC50 was 4.82 to 6.30.

The compound `Cc1ccc(C(=O)NS(=O)(=O)/C=C/c2ccc(Cl)c(Cl)c2)c(C)c1` [Example 4-34, (E)-2-(3,4-Dichloro-phenyl)-ethenesulfonic acid 2,4-dimethyl-benzoylamide; sodium salt] had a pIC50 of 4.82 to 6.30.

`Cc1cc(Br)ccc1C(=O)NS(=O)(=O)/C=C/c1ccc(C(F)(F)F)cc1` [Example 4-35, (E)-2-(4-Trifluoromethyl-phenyl)-ethenesulfonic acid 4-bromo-2-methyl-benzoylamide; sodium salt] gave a pIC50 of 4.82 to 6.30.

`Cc1ccc(C(=O)NS(=O)(=O)/C=C/c2ccc(OC(F)(F)F)cc2)c(Br)c1` [Example 4-37, (E)-2-(4-Trifluoromethoxyphenyl)-ethenesulfonic acid 2-bromo-4-methyl-benzoylamide; sodium salt] had a pIC50 of 4.82 to 6.30.

With `Cc1ccc(C(=O)NS(=O)(=O)/C=C/c2ccc(C(F)(F)F)cc2)c(C)c1` [Example 4-40, (E)-2-(4-Trifluoromethyl-phenyl)-ethenesulfonic acid 2,4-dimethyl-benzoylamide; sodium salt], the pIC50 is 4.82 to 6.30.

`COc1cc(Br)ccc1C(=O)NS(=O)(=O)/C=C/c1ccccc1` [Example 5-1, (E)-2-Phenyl-ethenesulfonic acid 4-bromo-2-methoxy-benzoylamide] had a pIC50 of 4.82 to 6.30.

For the compound `Cc1ccc(C(=O)NS(=O)(=O)/C=C/c2ccccc2)c(C(F)(F)F)c1` [Example 5-2, (E)-2-Phenyl-ethenesulfonic acid 4-methyl-2-trifluoromethyl-benzoylamide], the negative-log IC50 (pIC50) was 4.82 to 6.30.

`COc1cc(F)ccc1C(=O)NS(=O)(=O)/C=C/c1ccccc1` [Example 5-3, (E)-2-Phenyl-ethenesulfonic acid 4-fluoro-2-methoxy-benzoylamide] showed a negative-log IC50 (pIC50) of 4.82 to 6.30.

`O=C(NS(=O)(=O)/C=C/c1ccccc1)c1ccc(Cl)cc1Br` [Example 5-4, (E)-2-Phenyl-ethenesulfonic acid 2-bromo-4-chloro-benzoylamide] had a pIC50 of 4.82 to 6.30.

`COc1cc(C(F)(F)F)ccc1C(=O)NS(=O)(=O)/C=C/c1ccccc1` [Example 5-6, (E)-2-Phenyl-ethenesulfonic acid 2-methoxy-4-trifluoromethyl-benzoylamide] had a pIC50 of 4.82 to 6.30.

Take `COc1cc(Cl)ccc1C(=O)NS(=O)(=O)C=Cc1ccccc1` [Example 6-1, 2-Phenyl-ethenesulfonic acid 4-chloro-2-methoxy-benzoylamide]: the pIC50 is 4.82 to 6.30.

`O=C(NS(=O)(=O)/C=C/c1ccccc1)c1ccc(F)cc1Br` [Example 6-2, (E)-2-Phenyl-ethenesulfonic acid 2-bromo-4-fluoro-benzoylamide; sodium salt] had a pIC50 of 4.82 to 6.30.

`Cc1ccc(C(=O)NS(=O)(=O)/C=C/c2ccccc2)c(Br)c1` [Example 6-3, (E)-2-Phenyl-ethenesulfonic acid 2-bromo-4-methyl-benzoylamide; sodium salt] gave a pIC50 of 4.82 to 6.30.

In turn, `O=C(NS(=O)(=O)/C=C/c1ccccc1)c1ccc(Br)cc1Cl` [Example 6-5, (E)-2-Phenyl-ethenesulfonic acid 4-bromo-2-chloro-benzoylamide; sodium salt] showed a pIC50 of 4.82 to 6.30.

Compound `Cc1cc(Cl)ccc1C(=O)NS(=O)(=O)/C=C/c1ccccc1` [Example 6-6, (E)-2-Phenyl-ethenesulfonic acid 4-chloro-2-methyl-benzoylamide; sodium salt] gave a pIC50 of 4.82 to 6.30.
